Measurements reported in US10308959B2, “Methods, systems, and compositions relating to MiRNA-146a” (Henry Ford Health System, priority 2013, dated 2019).

How the values were obtained:
Assay type in all cases: cell-based
[1] = system: primary rat embryonic OPCs; assay: miR-146a quantification by qrtPCR in primary rat embryonic OPCs
Experimental: (§1) Primary rat embryonic OPCs were isolated and prepared according to the method known to the skilled artisan. Briefly, on embryonic day 17, rat embryos were removed from a pregnant Wistar rat in a laminar flow hood. The cortices were dissected out by using microdissecting scissors, rinsed twice in Hank's buffered salt solution and dissociated after digesting with 0.01% trypsin and DNase at 37° C. for 15 min. The digested cells were washed twice, filtered through a 70 mm nylon cell strainer and plated with DMEM containing 20% fetal bovine serum (FBS) in poly-D-lysine coated T75 cell culture flasks (approximately 10 million cells per flask). The cells grew to confluence for 10 days and then were placed on the shaker at 200 r.p.m. at 37° C. for 1 h to remove microglial cells. Subsequently, the cells were left on the shaker for an additional 18-20 h to collect OPCs. The collected OPCs were plated in untreated Petri dishes for 1 h to remove contaminated microglia and astrocytes which attach to the Petri dish more efficiently than OPCs. The unattached OPCs were transferred onto poly-D,L-ornithine-coated Petri dishes at a cell density of 10^4 per/cm2 with a basal chemically defined medium (“BDM”) containing 10 ng/ml platelet-derived growth factor-alpha (“PDGF-AA”) and 10 ng/ml basic fibroblast growth factor (“bFGF”) for 7-10 days. […]

[2] = system: mouse OPC cell line-N20.1; assay: miR-146a quantification by qrtPCR in N20.1 cells
Experimental: The mouse primary cultures of OPCs were conditionally immortalized by transformation with a temperature-sensitive large T-antigen into a mouse OPC cell line-N20.1 (21). N20.1 cells were provided by Dr. Anthony Campagnoni (University of California at Los Angeles). N20.1 cells were grown and maintained in Dulbecco's modified Eagle's medium (“DMEM”)/F12 with 1% fetal bovine serum (“FBS”) and G418 (100 μg/ml) at 37° C. For N20.1 cells, transient transfections were performed with Nucleofector kit according to the manufacturer's protocol (Amaxa, Germany). The cells (10^6) were mixed with 1 μg plasmid DNA or 100 pmol of siRNA/oligo nucleotides and pulsed according to the manufacturer's instruction. The transfected cells were immediately plated into Petri dishes with DMEM containing 1% FBS and incubated at 37° C. for days. Primary rat embryonic OPCs were transiently transfected with Lipofectamine (Invitrogen) overnight, according to the manufacturer's protocol (see Chew et al., J. Neuroscience 30(33): 11011-11027 (2010)). […]
The cDNA for each miR and TaqMan assay were performed in triplicate according to the manufacturer's protocol specified in Applied Biosystems ViiA™ 7 Real-Time PCR System (Applied Biosystem). […] Values obtained from three independent experiments were analyzed relative to gene expression data using the 2^−ΔΔCT method.

[3] = system: primary rat embryonic OPCs; assay: Western blot of MBP, TLR signaling mediators and MAPKs in primary rat embryonic OPCs
Experimental: (§2) Primary rat embryonic OPCs were isolated and prepared according to the method known to the skilled artisan. Briefly, on embryonic day 17, rat embryos were removed from a pregnant Wistar rat in a laminar flow hood. The cortices were dissected out by using microdissecting scissors, rinsed twice in Hank's buffered salt solution and dissociated after digesting with 0.01% trypsin and DNase at 37° C. for 15 min. The digested cells were washed twice, filtered through a 70 mm nylon cell strainer and plated with DMEM containing 20% fetal bovine serum (FBS) in poly-D-lysine coated T75 cell culture flasks (approximately 10 million cells per flask). The cells grew to confluence for 10 days and then were placed on the shaker at 200 r.p.m. at 37° C. for 1 h to remove microglial cells. Subsequently, the cells were left on the shaker for an additional 18-20 h to collect OPCs. The collected OPCs were plated in untreated Petri dishes for 1 h to remove contaminated microglia and astrocytes which attach to the Petri dish more efficiently than OPCs. The unattached OPCs were transferred onto poly-D,L-ornithine-coated Petri dishes at a cell density of 10^4 per/cm2 with a basal chemically defined medium (“BDM”) containing 10 ng/ml platelet-derived growth factor-alpha (“PDGF-AA”) and 10 ng/ml basic fibroblast growth factor (“bFGF”) for 7-10 days.
The mouse primary cultures of OPCs were conditionally immortalized by transformation with a temperature-sensitive large T-antigen into a mouse OPC cell line-N20.1 (21). N20.1 cells were provided by Dr. Anthony Campagnoni (University of California at Los Angeles). N20.1 cells were grown and maintained in Dulbecco's modified Eagle's medium (“DMEM”)/F12 with 1% fetal bovine serum (“FBS”) and G418 (100 μg/ml) at 37° C. For N20.1 cells, transient transfections were performed with Nucleofector kit according to the manufacturer's protocol (Amaxa, Germany). The cells (10^6) were mixed with 1 μg plasmid DNA or 100 pmol of siRNA/oligo nucleotides and pulsed according to the manufacturer's instruction. The transfected cells were immediately plated into Petri dishes with DMEM containing 1% FBS and incubated at 37° C. for days. Primary rat embryonic OPCs were transiently transfected with Lipofectamine (Invitrogen) overnight, according to the manufacturer's protocol (see Chew et al., J. Neuroscience 30(33): 11011-11027 (2010)). Amounts of DNA and siRNA/oligo nucleotides were used as recommended by the manufacturer. The control plasmid (pcDNA3) was used as a mock transfected control for miR-146a expression vector transfection, and control siRNA (Ambion, a random mixture of oligonucleotides) was used as a mock transfected control for both transfections with Tβ4siRNA and anti-miR-146a inhibitor nucleotides. The cells (10^4 cells/cm^2) were treated with 0, 25, 50, 100 ng/ml of Tβ4 (RegeneRx Biopharmaceuticals Inc., Rockville, Md.). The cells were incubated at 37° C. and fed every 2 days with fresh medium (DMEM containing 1% FBS for N20.1 cells and BDM for primary rat embryonic OPCs) with and without Tβ4 for 4 days. To test for LPS contamination in Tβ4, the cells were cultured in the presence of the LPS inhibitor polymyxin B (50 μg/ml) followed by treatment with Tβ4. Tβ4 (100 ng/ml) was boiled for 10 minutes in order to denature Tβ4 protein and was used as a negative control. […]

[4] = system: mouse OPC cell line-N20.1; assay: Western blot of MBP, TLR signaling mediators and MAPKs in N20.1 cells
Experimental: The mouse primary cultures of OPCs were conditionally immortalized by transformation with a temperature-sensitive large T-antigen into a mouse OPC cell line-N20.1 (21). N20.1 cells were provided by Dr. Anthony Campagnoni (University of California at Los Angeles). N20.1 cells were grown and maintained in Dulbecco's modified Eagle's medium (“DMEM”)/F12 with 1% fetal bovine serum (“FBS”) and G418 (100 μg/ml) at 37° C. For N20.1 cells, transient transfections were performed with Nucleofector kit according to the manufacturer's protocol (Amaxa, Germany). The cells (10^6) were mixed with 1 μg plasmid DNA or 100 pmol of siRNA/oligo nucleotides and pulsed according to the manufacturer's instruction. The transfected cells were immediately plated into Petri dishes with DMEM containing 1% FBS and incubated at 37° C. for days. Primary rat embryonic OPCs were transiently transfected with Lipofectamine (Invitrogen) overnight, according to the manufacturer's protocol (see Chew et al., J. Neuroscience 30(33): 11011-11027 (2010)). Amounts of DNA and siRNA/oligo nucleotides were used as recommended by the manufacturer. The control plasmid (pcDNA3) was used as a mock transfected control for miR-146a expression vector transfection, and control siRNA (Ambion, a random mixture of oligonucleotides) was used as a mock transfected control for both transfections with Tβ4siRNA and anti-miR-146a inhibitor nucleotides. The cells (10^4 cells/cm^2) were treated with 0, 25, 50, 100 ng/ml of Tβ4 (RegeneRx Biopharmaceuticals Inc., Rockville, Md.). The cells were incubated at 37° C. and fed every 2 days with fresh medium (DMEM containing 1% FBS for N20.1 cells and BDM for primary rat embryonic OPCs) with and without Tβ4 for 4 days. To test for LPS contamination in Tβ4, the cells were cultured in the presence of the LPS inhibitor polymyxin B (50 μg/ml) followed by treatment with Tβ4. Tβ4 (100 ng/ml) was boiled for 10 minutes in order to denature Tβ4 protein and was used as a negative control. Transfected cells (2×10^4 cells/cm2) including mock transfected controls were treated with and without 100 ng/ml of Tβ4 (RegeneRx Biopharmaceuticals Inc., Rockville, Md.) for 4 days and fresh medium was provided at day 2 with/without Tβ4.
Total protein extracts from the cells were prepared, as known to the skilled artisan. The protein extracts were separated by sodium dodecyl sulfate-polyacrylamide gel electrophoresis for Western blot analysis. For Western blot analysis, rabbit antiserum for MBP (1:200; Dako, Carpinteria, Calif.), monoclonal antibodies (1:1000) for p38MAPK, phosphorylated p38MAPK, c-JUN, phosphorylated c-JUN (1:1000; Upstate, Charlottesville, Va., USA), rabbit polyclonal antibodies (1:1000) for JNK1 and phosphorylated JNK1 (Promega Corporation), goat polyclonal TLR2, rabbit polyclonal TLR4, mouse monoclonal IRAK1 antibodies (1:1000), rabbit polyclonal TRAF6 antibodies (1:1000) mouse monoclonal β-actin antibodies (1:5000; Santa Cruz Biotechnology) and mouse monoclonal α-tubulin antibodies (1:5000; Sigma) were used. Donkey anti-goat, anti-rabbit, and anti-mouse horseradish peroxidase (1:5000; Jackson ImmunoResearch Labs, West Grove, Pa., USA) were used as secondary antibodies. Each experiment was repeated at least three times. The protein bands were quantified based on histogram analysis relative to gel loading marker α-tubulin.

[5] = system: primary rat embryonic OPCs; assay: QrtPCR of mRNA (MBP, p38MAPK) in primary rat embryonic OPCs
Experimental: as §2
(§3) The mouse primary cultures of OPCs were conditionally immortalized by transformation with a temperature-sensitive large T-antigen into a mouse OPC cell line-N20.1 (21). N20.1 cells were provided by Dr. Anthony Campagnoni (University of California at Los Angeles). N20.1 cells were grown and maintained in Dulbecco's modified Eagle's medium (“DMEM”)/F12 with 1% fetal bovine serum (“FBS”) and G418 (100 μg/ml) at 37° C. For N20.1 cells, transient transfections were performed with Nucleofector kit according to the manufacturer's protocol (Amaxa, Germany). The cells (10^6) were mixed with 1 μg plasmid DNA or 100 pmol of siRNA/oligo nucleotides and pulsed according to the manufacturer's instruction. […]

[6] = system: mouse OPC cell line-N20.1; assay: QrtPCR of mRNA (MBP, p38MAPK) in N20.1 cells
Experimental: The mouse primary cultures of OPCs were conditionally immortalized by transformation with a temperature-sensitive large T-antigen into a mouse OPC cell line-N20.1 (21). N20.1 cells were provided by Dr. Anthony Campagnoni (University of California at Los Angeles). N20.1 cells were grown and maintained in Dulbecco's modified Eagle's medium (“DMEM”)/F12 with 1% fetal bovine serum (“FBS”) and G418 (100 μg/ml) at 37° C. For N20.1 cells, transient transfections were performed with Nucleofector kit according to the manufacturer's protocol (Amaxa, Germany). The cells (10^6) were mixed with 1 μg plasmid DNA or 100 pmol of siRNA/oligo nucleotides and pulsed according to the manufacturer's instruction. The transfected cells were immediately plated into Petri dishes with DMEM containing 1% FBS and incubated at 37° C. for days. Primary rat embryonic OPCs were transiently transfected with Lipofectamine (Invitrogen) overnight, according to the manufacturer's protocol (see Chew et al., J. Neuroscience 30(33): 11011-11027 (2010)). Amounts of DNA and siRNA/oligo nucleotides were used as recommended by the manufacturer. The control plasmid (pcDNA3) was used as a mock transfected control for miR-146a expression vector transfection, and control siRNA (Ambion, a random mixture of oligonucleotides) was used as a mock transfected control for both transfections with Tβ4siRNA and anti-miR-146a inhibitor nucleotides. The cells (10^4 cells/cm^2) were treated with 0, 25, 50, 100 ng/ml of Tβ4 (RegeneRx Biopharmaceuticals Inc., Rockville, Md.). The cells were incubated at 37° C. and fed every 2 days with fresh medium (DMEM containing 1% FBS for N20.1 cells and BDM for primary rat embryonic OPCs) with and without Tβ4 for 4 days. […]
After qrtPCR, agarose gel electrophoresis was performed to verify the quality of the qrtPCR products. No secondary products were detected. […] Values obtained from three independent experiments were analyzed relative to gene expression data using the 2^−ΔΔCT method.

[7] = system: primary rat embryonic OPCs; assay: MBP immunofluorescence cell counting in primary rat embryonic OPCs; details: Tβ4 100 ng/ml where used; DAPI positive cells as total
Experimental: as §1

mouse N20.1 cells = assay: MBP immunofluorescence cell counting in N20.1 cells; details: Tβ4 100 ng/ml where used; DAPI positive cells as total
Experimental: as §3
Immunofluorescence staining was performed in N20.1 and primary rat embryonic OPC cells. These cells were fixed with 4% paraformaldehyde for 1 h, washed with PBS, blocked with 1% serum for 1 h and incubated with monoclonal antibodies of OPC marker—O4, (1:1000, Chemicon, Billerica, Mass., USA) and a polyclonal antibody against mature OL marker—MBP (1:200; Dako, Carpinteria, Calif.) at room temperature for one hour, rinsed with PBS and secondary antibodies labeled with cyanine fluorophore (Cy3—red fluorescence) for 1 h. The slides were counterstained with 4′,6-diamidino-2-phenylindole (DAPI—blue fluorescence) and examined under Fluorescent Illumination Microscope (Olympus IX71/IX51, Tokyo, Japan). […]

[8] = second miR named, sentence 'In contrast'
[9] = in the presence of polymyxin B (50 μg/ml), 50 and 100 ng/ml, 4 days

For “thymosin beta 4 (SDKPDMAEIEKFDKSKLKKTETQEKNPLPSKETIEQEKQAGES; listed as Homo sapiens) [Tβ4]”, the “expression of miR-146a” value ([1]; Tβ4 0 to 100 ng/ml, 4 days) was “increased in a dose dependent manner”, the “miR-146a expression (data not shown)” value [1, 8] was “no effect” and the “expression of miR-146a” value ([2]; Tβ4 0 to 100 ng/ml, 4 days) was “increased in a dose dependent manner”. For the same substance, the “miR-146a expression (data not shown)” value [2, 8] was “no effect”, the “expression and phosphorylation of p38MAPK” value [3] was “induced” and the “expression level of MBP (protein)” value [3] was “increased”. The “expression levels of IRAK1 and TRAF6” value [3] was “markedly reduced”, the “expression of TLR2 and TLR4” value [3] was “no effect” and the “phosphorylation of ERK1/2, JNK1 and c-Jun” value [3] was “dose-dependently inhibited”. For the same substance, the “expression and phosphorylation of p38MAPK” value [4] was “induced”, the “expression level of MBP (protein)” value [4] was “increased” and the “expression levels of IRAK1 and TRAF6” value [4] was “markedly reduced”. The “expression of TLR2 and TLR4” value [4] was “no effect”, the “phosphorylation of ERK1/2, JNK1 and c-Jun” value [4] was “dose-dependently inhibited” and the “increase in mRNA MBP expression” value ([5]; Tβ4 100 ng/ml where used) was “two-fold increase”. The “expression of MBP, mRNA and protein levels” value [5, 9] was “induced”, the “increase in mRNA MBP expression” value ([6]; Tβ4 100 ng/ml where used) was “two-fold increase” and the “expression of MBP, mRNA and protein levels” value [6, 9] was “induced”. The “number of MBP positive OPCs” value [7] was “significantly increased” and the “number of MBP positive OPCs” value (mouse N20.1 cells) was “significantly increased”.
